From patent US12195435B2, “5-methylchromone and the preparation method and application thereof” (HAINAN MEDICAL UNIVERSITY, priority 2020, dated 2025)

Target: tyrosinase
Assay: Determination of the activity of compounds inhibiting tyrosinase (L-tyrosine substrate, absorbance at 475 nm)
Type: biochemical
Conditions: for IC50: L-tyrosine 0.1 mg/mL, tyrosinase 48 U/mL, pH 6.8, 37° C. 30 min, n = 3, read-out: IC50 ± SEM (tyrosinase inhibition); for tyrosinase inhibitory activity (in words, compared with aloesin): comparison with positive control aloesin
Protocol: Method for determining the activity of inhibiting tyrosinase: Firstly, adding the sample: 40 μL (10% DMSO, setting different concentrations (0, 25, 50, 100, 200 μg/mL)) into a 96-well plate (aloesin is the positive control), then adding L-tyrosine: 40 μL (0.1 mg/mL, dissolving in 0.1M potassium phosphate buffer solution, pH=6.8), tyrosinase: 40 μL (48 U/mL, dissolving in 0.1M potassium phosphate buffer solution, pH=6.8), and finally diluting the volume to 200 μL with potassium phosphate buffer solution, and detecting the absorbance at 475 nm on 0 min; after incubating at 37° C. for 30 min, measuring the absorbance.

Compound	IC50 [µM]	tyrosinase inhibitory activity (in words, compared with aloesin)
CCc1cc(=O)c2c(C)cc(O)cc2o1 [Compound 1-2]	6200 ± 70	
CCCc1cc(=O)c2c(C)cc(O)cc2o1 [Compound 1-3]	2400 ± 100	
CC(=O)Cc1cc(=O)c2c(C)cc(O)c([C@@H]3O[C@H](CO)[C@@H](O)[C@H](O)[C@H]3O)c2o1 [Aloesin, aloesin, reference compound]	2700 ± 40	
CCCc1cc(=O)c2c(C)cc(OCC)cc2o1 [Compound 1-6]	600 ± 30	higher than the tyrosinase inhibitory activity of aloesin
Cc1cc(=O)c2c(C)cc(O)cc2o1 [Compound 1-1]	9300 ± 90	
Cc1cc(O)cc2oc(C(C)(C)C)cc(=O)c12 [Compound 1-4]	5400 ± 30	
CCCc1cc(=O)c2c(C)cc(OC)cc2o1 [Compound 1-5]	200 ± 70	higher than the tyrosinase inhibitory activity of aloesin
